Test results reported in patent US8957108B2, “Use of 5,6-dimethylxanthenone-4-acetic acid as an antiviral agent” (University of Maryland, Baltimore, priority 2006, dated 2015).
Values after ≈ are worked out from the molar mass of the structure shown.

How the values were obtained:
[1] = system: Influenza/A/Wuhan; test: Assay of direct inhibition of viral infection (influenza, MDCK cells, CPE); type: cell-based; settings: CPE of influenza virus on MDCK cells; read-out: IC50 direct antiviral activity
Method: Influenza at 10^3 TCID50 was added in 50 μl volumes to all wells and incubated at room temperature for 1 h. The mixture was inoculated onto MDCK cells on 96-well plates. Tamiflu (1.75 mg/ml) and Relenza (0.5 mg/ml) were used as a positive control for the assay.

[2] = system: Influenza/A/Wuhan; test: Assay of indirect inhibition of viral infection (influenza, MDCK cells, CPE); settings: CPE of influenza virus on MDCK cells
[3] = system: IRF-3; test: Native-PAGE and Western blotting for IRF-3 dimers; type: cell-based, mouse; settings: peritoneal macrophages, DMXAA- vs. LPS-stimulated
Method: Rabbit anti-mouse IκBα phospho-specific Ab (pAb) was purchased from Santa Cruz Biotechnology, Inc. (Santa Cruz, Calif.). Rabbit anti-mouse MAPK pAb and rabbit anti-human phospho-IRF-3 pAb antibodies were purchased from Cell Signaling (Danvers, Mass.). Rabbit anti-mouse IRF-3 pAb was purchased from Zymed (South San Francisco, Calif.). Native-PAGE for the detection of IRF-3 dimers was carried out as described in Iwamura, T. et al. (2001) “Induction Of IRF-3/-7 Kinase And NF-kappaB in Response To Double-Stranded RNA And Virus Infection: Common And Unique Pathways,” Genes and Cells 6:375-388. Briefly, thioglycollate-elicited peritoneal macrophages were lysed following stimulation with either LPS or DMXAA as indicated. […] Membranes were probed with a 1:250 dilution of rabbit anti-mouse IRF-3 for 1 h at room temperature. Goat anti-rabbit IgG-HRP (Cell Signaling Technologies, Danvers, Mass.) at a 1:2000 dilution was used as the secondary Ab. Blots were developed with ECL Plus (Amersham Biosciences, Piscataway, N.J.).

[4] = system: Francisella tularensis LVS; type: cell-based; settings: Ft LVS-infected macrophages
[5] = system: Ft LVS; settings: DMXAA alone (100 μg/ml), over a 24 hr period
[6] = system: macrophages; test: Expression of LPS-inducible early genes and IFN production in macrophages; type: cell-based, mouse
Description: Because all of the cellular activities listed above can be performed by another ubiquitous yet structurally diverse compound, the lipopolysaccharide (LPS) of Gram-negative bacteria, the ability of DMXAA to modulate the expression of a subset of well-characterized LPS-inducible early genes in macrophages was studied in an effort to further elucidate the mechanism of DMXAA action. DMXAA's ability to induce IFN production by macrophages and to modulate the expression of the genes that encode transcription factors IRF-1, IRF-2, and ICSBP members of the interferon regulatory factor (IRF) gene family was also studied. […] These genes are: TNF-α, IL-1β, IP-10, Type 2 Tumor Necrosis Factor Receptor (TNFR-2), D3, and D8.

Cc1ccc2c(=O)c3cccc(CC(=O)O)c3oc2c1C [DMXAA, 5,6-dimethylxanthenone-4-acetic acid]
IC50 [1]: 5 µg/mL (≈ 17.7 µM)
IC50 indirect antiviral activity [2]: 2.0 µg/mL (≈ 7.08 µM)
activated IRF-3 dimers [3]: much more abundant and longer-lived
time to reduce a bacterial burden compared with rIFN-β [4]: took longer
reduction of bacterial burden ([4]; 100 μg/ml, within 24 hr): 10 fold
effect on Ft LVS replication [5]: no effect
TNF-α gene expression [6]: only low induction
expression of the genes encoding IP-10, D8, and D3 [6]: up-regulated to levels similar to those observed upon LPS induction
induction of TNFR-2 and IL-1β genes [6]: insignificant induction
induction of Type 1 Interferons (IFNs) ([6]; mouse macrophages): extremely potent inducer
